Assay [1] has as its system NQO1 specific enzyme activity in BEAS-2B cells (marker for NRF2 activation). Put plainly: BEAS-2B NQO1 MTT Assay. The assay is classed as cell-based. The following applies: Homo sapiens, compound incubated 48 hours, read-out: EC50 (NQO1 specific enzyme activity induction). Summed up: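 BEAS-2B cells treated with compound for 48 h at 37 °C, then lysed; NQO1 activity in lysates measured kinetically by MTT reduction at A570 over 30 min. pEC50 from 3-parameter fit of ΔOD/min versus log concentration; lysate also taken for Cell Titer Glo.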

Assay [2] addresses T1, full length Keap1 protein / full length NRF2 protein (Homo sapiens, UniProt Q14145).
T1 construct: full length NRF2 protein and full length Keap1 protein (Keap1 exists a dimer) are used; His
Put plainly: NRF2-Keap1 TR-FRET Assay. The assay is classed as binding. The following applies: 25 nM Keap1-FlagHis and 50 nM biotin-NRF2 added. The source says: In the NRF2-Keap1 TR-FRET (time-resolved fluorescence resonance energy transfer) assay, full length NRF2 protein and full length Keap1 protein (Keap1 exists a dimer) are used. The assay detects the ability of compound to displace the binding of FlagHis-tagged Keap1 with biotinylated, Avi-tagged NRF2 protein. Biotin-NRF2 binds to streptavidin-europium (a component of the detection mix) and Keap1-FlagHis is recognized by anti-Flag APC (allophycocyanin) antibody (also a component of the detection mix). If binding occurs between the two proteins, there will be an energy transfer from the Eu+3 (donor) at 615 nm to the APC (acceptor) at 665 nm. A potential Keap1 inhibitor will cause a reduction in the TR-FRET signal by interfering with the binding of Keap1 to NRF2.
One hundred nanoliters of 100× compound dose response curves (serial 3-fold dilutions) in DMSO are stamped using an Echo liquid handling system (Labcyte) into 384-well, low volume, black assay plates (Greiner, #784076), with DMSO in columns 6 and 18. The top concentration of compound is located in columns 1 and 13. All reagents are diluted in assay buffer (50 mM Tris, pH 8.0, 5 mM MgCl2, 100 mM NaCl, 0.005% BSA, 1 mM DTT, and 2 mM CHAPS). The BSA, DTT, and CHAPS are added to the assay buffer on the day of assay. Using a Multidrop Combi (Thermo Electron Corporation) equipped with a metal tip dispenser, 5 ul of 25 nM Keap1-FlagHis protein is added to all wells of the compound plate, with the exception of the wells in column 18. Wells in column 18 receive 5 ul of assay buffer instead. Plates are centrifuged at 500 rpm for 1 minute, covered with a plate lid, and incubated at 37° C. for 2.25 hours. Plates are then removed from the incubator and allowed to cool to RT for 15 minutes. Five microliters of 50 nM biotin-NRF2 protein is then added to all wells of the plates and the plates are spun at 500 rpm for 1 minute, followed by incubating at 4° C. for 1.25 hours. The plates are then allowed to warm to RT for 15 minutes, followed by the addition of 10 ul of detection mix (1 nM Streptavidin Eu+ W1024 and 5 ug/ml mouse anti-DYKDDDDK IgG conjugated to SureLight APC antibody; both from Columbia Biosciences) to all wells. Plates are spun at 500 rpm for 1 minute, incubated for 1 hour at RT, and read on an Envision plate reader using a 320 nm excitation filter and 615 nm and 665 nm emission filters. Compound response (% inhibition) and potency (pIC50) are calculated based on the ratio of the two emissions (665 nm/615 nm) and then the transformed data is normalized against controls in the assay (control 1=1% DMSO in the presence of NRF2 and Keap1 protein and control 2=1% DMSO in the absence of protein). Data analysis is handled using the software package Abase XE (Surrey, United Kingdom). The % inhibition values are calculated from the ratio (transformed) data by the equation: 100−(100*(compound response−average control 2)/(average control 1−average control2)). For calculation of pIC50s, Abase XE uses a four parameter equation. pIC50 is the negative log of the IC50.

The target of assay [3] is T2, Keap1 Kelch domain (321-609) / TAMRA-labeled 16mer NRF2 peptide (ETGE motif) (Homo sapiens, UniProt Q14145).
T2 construct: the Kelch domain (321-609) of Keap1 is used
The assay can be described thus: NRF2-Keap1 FP Assay (Keap1 Kelch fluorescence polarization). The following applies: 20 nM Keap1 (321-609), 8 nM Tamra labeled peptide. The assay is classed as binding. Summed up:
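Compound dilutions (3-fold) were incubated 1 hr at room temperature with 20 nM Keap1 Kelch (321-609) and 8 nM TAMRA-labeled ETGE 16mer peptide. Buffer was 50 mM Tris pH 8.0, 100 mM NaCl, 5 mM MgCl2, 1 mM DTT, 2 mM CHAPS, 0.005% BSA. Fluorescence polarization (mP) was normalized to controls and fitted with a four-parameter equation to give pIC50.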
Background: Polarisation of emitted light reports the rotation of a fluorescent probe.

As usually defined, the pEC50 is −log10 of the EC50, conventionally taken in molar units. Broadly, the pIC50 is the negative decadic logarithm of the IC50, by convention in mol/L.

pEC50, pIC50: −log10 of the molar value. Read-outs that look alike come from different tables or passages of the source.

T2 sequence (Q14145 321-609): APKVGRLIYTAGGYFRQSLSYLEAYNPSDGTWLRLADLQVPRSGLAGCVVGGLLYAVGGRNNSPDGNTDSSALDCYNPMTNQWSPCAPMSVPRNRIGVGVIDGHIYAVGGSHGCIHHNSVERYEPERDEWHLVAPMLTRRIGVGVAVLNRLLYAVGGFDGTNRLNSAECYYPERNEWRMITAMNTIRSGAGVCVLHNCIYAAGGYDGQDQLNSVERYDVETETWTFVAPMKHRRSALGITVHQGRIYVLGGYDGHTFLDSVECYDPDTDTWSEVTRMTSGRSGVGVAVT
T1 sequence (Q14145 whole entry): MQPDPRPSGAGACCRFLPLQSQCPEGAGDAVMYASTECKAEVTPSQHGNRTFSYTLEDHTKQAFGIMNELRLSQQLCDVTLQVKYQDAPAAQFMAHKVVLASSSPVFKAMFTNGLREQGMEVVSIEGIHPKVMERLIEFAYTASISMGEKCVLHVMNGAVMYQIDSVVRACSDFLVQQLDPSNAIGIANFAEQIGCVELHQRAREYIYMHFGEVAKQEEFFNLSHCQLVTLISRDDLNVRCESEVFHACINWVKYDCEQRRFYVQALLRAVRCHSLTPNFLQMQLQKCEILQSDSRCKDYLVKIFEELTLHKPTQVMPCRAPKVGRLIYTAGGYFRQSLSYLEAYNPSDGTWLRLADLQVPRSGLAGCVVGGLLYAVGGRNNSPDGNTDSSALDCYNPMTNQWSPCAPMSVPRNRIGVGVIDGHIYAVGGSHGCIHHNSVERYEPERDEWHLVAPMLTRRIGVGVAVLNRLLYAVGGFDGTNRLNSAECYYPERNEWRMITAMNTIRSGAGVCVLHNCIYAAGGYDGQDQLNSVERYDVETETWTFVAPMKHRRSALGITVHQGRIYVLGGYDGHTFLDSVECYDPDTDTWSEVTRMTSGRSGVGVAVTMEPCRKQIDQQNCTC

`CCCN(CC1CC1)C(=O)c1cccc(-c2cccc(-n3ncc(C(=O)O)c3C3CC3)c2)c1Cl` [Example 15, 1-(3-{2-Chloro-3-[(cyclopropylmethyl)(propyl)carbamoyl]phenyl}phenyl)-5-cyclopropyl-1H-pyrazole-4-carboxylic Acid]: the negative-log EC50 (pEC50) in assay [1] was 5.00 to 6.00. For the same compound, the pIC50 was 5.00 to 6.00 in assay [2] and 6.00 to 7.00 in assay [3].

For `CCCN(CC1CC1)C(=O)c1cccc(-c2cccc(-n3ncc(C(=O)O)c3C3CC3)c2)c1C` [Example 16, 5-Cyclopropyl-1-(3-{3-[(cyclopropylmethyl)(propyl)carbamoyl]-2-methylphenyl}phenyl)-1H-pyrazole-4-carboxylic Acid], in assay [1], the negative logarithm of the EC50 (pEC50) was 5.00 to 6.00. Further, the values for the pIC50 in assay [2] and in assay [3] were 5.00 to 6.00 and 6.00 to 7.00, respectively.

Take `O=C(O)c1cnn(-c2cccc(-c3cccc(C(=O)N4CCCC(C(F)(F)F)C4)c3F)c2)c1C1CC1` (stereo not drawn) [Example 18, 5-Cyclopropyl-1-(3-{2-fluoro-3-[3-(trifluoromethyl)piperidine-1-carbonyl]phenyl}phenyl)-1H-pyrazole-4-carboxylic Acid]: the pEC50 in assay [1] is 5.00 to 6.00. Further, the pIC50 is 5.00 to 6.00 in assay [2] and 6.00 to 7.00 in assay [3].

For `O=C(O)c1cnn(-c2cccc(-c3cccc(C(=O)N4CCCCC45CC5)c3F)c2)c1C1CC1` [Example 19, 1-[3-(3-{4-Azaspiro[2.5]octane-4-carbonyl}-2-fluorophenyl)phenyl]-5-cyclopropyl-1H-pyrazole-4-carboxylic Acid], in assay [1], the pEC50 is 5.00 to 6.00. The results for the pIC50 in assay [2] and in assay [3] were 5.00 to 6.00 and 6.00 to 7.00, respectively.

Consider `O=C(O)c1cnn(-c2cccc(-c3cccc(C(=O)N4CCCCC4)c3F)c2)c1C1CC1` [Example 20, 5-Cyclopropyl-1-{3-[2-fluoro-3-(piperidine-1-carbonyl)phenyl]phenyl}-1H-pyrazole-4-carboxylic Acid], for which the pEC50 in assay [1] is 5.00 to 6.00. Further, the pIC50 was 5.00 to 6.00 in assay [2] and 6.00 to 7.00 in assay [3].

Regarding `COCC1CCCCN1C(=O)c1cccc(-c2cccc(-n3ncc(C(=O)O)c3C3CC3)c2)c1F` (stereo not drawn) [Example 22, 5-Cyclopropyl-1-(3-{2-fluoro-3-[2-(methoxymethyl)piperidine-1-carbonyl]phenyl}phenyl)-1H-pyrazole-4-carboxylic Acid], in assay [1], the pEC50 is 5.00 to 6.00. For the same compound, the pIC50 in assay [2] is 5.00 to 6.00; in assay [3], 7.00 to 8.00.

Consider `O=C(O)c1cnn(-c2cccc(-c3cccc(C(=O)N(CCC(F)(F)F)CC4CC4)c3F)c2)c1C1CC1` [Example 23, 5-Cyclopropyl-1-(3-{3-[(cyclopropylmethyl)(3,3,3-trifluoropropyl)carbamoyl]-2-fluorophenyl}phenyl)-1H-pyrazole-4-carboxylic Acid], for which the pEC50 in assay [1] is 5.00 to 6.00. For the same compound, the negative-log IC50 (pIC50) in assay [2] is 5.00 to 6.00; in assay [3] it was 6.00 to 7.00.

`CC1CCC(C)N1C(=O)c1cccc(-c2cccc(-n3ncc(C(=O)O)c3C3CC3)c2)c1F` (stereo not drawn) [Example 24, 5-Cyclopropyl-1-{3-[3-(2,5-dimethylpyrrolidine-1-carbonyl)-2-fluorophenyl]phenyl}-1H-pyrazole-4-carboxylic Acid]: in assay [1], the negative-log EC50 (pEC50) was 5.00 to 6.00. In addition, the pIC50 in assay [2] is 5.00 to 6.00; in assay [3] it was 6.00 to 7.00.

In the case of `CCCC1CCCN1C(=O)c1cccc(-c2cccc(-n3ncc(C(=O)O)c3C3CC3)c2)c1F` (stereo not drawn) [Example 26, 5-Cyclopropyl-1-{3-[2-fluoro-3-(2-propylpyrrolidine-1-carbonyl)phenyl]phenyl}-1H-pyrazole-4-carboxylic Acid], the negative-log EC50 (pEC50) in assay [1] was 5.00 to 6.00. Moreover, the pIC50 in assay [2] is 6.00 to 7.00; in assay [3], 7.00 to 8.00.

Turning to `CCCC1COCCN1C(=O)c1cccc(-c2cccc(-n3ncc(C(=O)O)c3C3CC3)c2)c1F` (stereo not drawn) [Example 27, 5-Cyclopropyl-1-{3-[2-fluoro-3-(3-propylmorpholine-4-carbonyl)phenyl]phenyl}-1H-pyrazole-4-carboxylic Acid], in assay [1], the pEC50 was 5.00 to 6.00. Also, the pIC50 was 6.00 to 7.00 in assay [2] and 7.00 to 8.00 in assay [3].

Turning to `O=C(O)c1cnn(-c2cccc(-c3cccc(C(=O)N4C5CCC4COC5)c3F)c2)c1C1CC1` [Example 32, 5-cyclopropyl-1-[3-(2-fluoro-3-{3-oxa-8-azabicyclo[3.2.1]octane-8-carbonyl}phenyl)phenyl]-1H-pyrazole-4-carboxylic Acid], in assay [1], the pEC50 is 5.00 to 6.00. The negative-log IC50 (pIC50) in assay [2] was 5.00 to 6.00; in assay [3] it was 6.00 to 7.00.

With `Cc1ccnn1-c1cccc(-c2cccc(-n3ncc(C(=O)O)c3C3CC3)c2)c1` [Example 36, 5-Cyclopropyl-1-{3-[3-(5-methyl-1H-pyrazol-1-yl)phenyl]phenyl}-1H-pyrazole-4-carboxylic Acid], the negative logarithm of the EC50 (pEC50) in assay [1] (BEAS-2B, 48 h) is 5.00 to 6.00. Also, the pIC50 in assay [2] is 5.00 to 6.00; in assay [3] it was 6.00 to 7.00.

Take `Cc1ccnn1-c1cccc(-c2cccc(-n3ncc(C(=O)O)c3C3CC3)c2)c1F` [Example 39, 5-cyclopropyl-1-{3-[2-fluoro-3-(5-methyl-1H-pyrazol-1-yl)phenyl]phenyl}-1H-pyrazole-4-carboxylic Acid]: the pEC50 in assay [1] is 5.00 to 6.00. Further, the results for the pIC50 in assay [2] and in assay [3] were 5.00 to 6.00 and 6.00 to 7.00, respectively.

In the case of `O=C(O)c1cnn(-c2cccc(-c3cccc(C(=O)N4CCCC5(CCCOC5)C4)c3F)c2)c1C1CC1` (stereo not drawn) [Example 43, 5-Cyclopropyl-1-[3-(2-fluoro-3-{2-oxa-8-azaspiro[5.5]undecane-8-carbonyl}phenyl)phenyl]-1H-pyrazole-4-carboxylic Acid], the pEC50 in assay [1] is 5.00 to 6.00. In addition, the pIC50 in assay [2] is 6.00 to 7.00; in assay [3] it was 7.00 to 8.00.

Take `O=C(O)c1cnn(-c2cccc(-c3cccc(C(=O)N4CCOC5(CCCC5)C4)c3F)c2)c1C1CC1` [Example 44, 5-cyclopropyl-1-[3-(2-fluoro-3-{6-oxa-9-azaspiro[4.5]decane-9-carbonyl}phenyl)phenyl]-1H-pyrazole-4-carboxylic Acid]: in assay [1], the pEC50 was 5.00 to 6.00. Further, the pIC50 in assay [2] is 6.00 to 7.00; in assay [3] it was 7.00 to 8.00.

Take `CC(=O)N1CCC(c2c(C(=O)O)cnn2-c2cccc(-c3cccc(C(=O)N(C)C)c3)c2)CC1` [Example 46]: the pEC50 in assay [1] was 5.00 to 6.00. The pIC50 was 4.00 to 5.00 in assay [2] and 5.00 to 6.00 in assay [3].

As to `CN(CC1CC1)C(=O)c1cccc(-c2cccc(-n3ncc(C(=O)O)c3C(F)(F)F)c2)c1F` [Example 47, 1-(3-{3-[(cyclopropylmethyl)(methyl)carbamoyl]-2-fluorophenyl}phenyl)-5-(trifluoromethyl)-1H-pyrazole-4-carboxylic Acid], the pEC50 in assay [1] is 5.00 to 6.00. Moreover, the pIC50 in assay [2] was 5.00 to 6.00; in assay [3], 6.00 to 7.00.

In the case of `CN(CC1CC1)C(=O)c1cccc(-c2cccc(-n3ncc(C(=O)O)c3C3CC3)c2)c1F` [Example 48, 5-cyclopropyl-1-(3-{3-[(cyclopropylmethyl)(methyl)carbamoyl]-2-fluorophenyl}phenyl)-1H-pyrazole-4-carboxylic Acid], the pEC50 in assay [1] was 5.00 to 6.00. The values for the pIC50 in assay [2] and in assay [3] were 5.00 to 6.00 and 6.00 to 7.00, respectively.

The record behind these values is US10364256B2 (GlaxoSmithKline Intellectual Property Development Limited, priority 2015, dated 2019).
